This note sets out measurements from patent publication US20210145801A1, “THERAPY FOR PROTEIN MISFOLDING DISEASE” (WREN THERAPEUTICS LIMITED, priority 2018, published 2021).

SMILES strings stand for the structures. Entries after “also recorded” stand apart in the source; their conditions may differ.

One data set deals with T1, Aβ42 oligomers (Homo sapiens, UniProt P05067).
T1 construct: made in house; host or cells: E. coli BL21 Gold (DE3)
The data set is described as follows: Ca2+ influx assay (lipid vesicle disruption). In kind it is biochemical. Conditions: 2 μM Aβ42; 5-fold excess added at 0 h; measured at 2 h (half-time). The protocol:
Single vesicles tethered to PLL-PEG coated borosilicate glass coverslides (VWR International, 22×22 mm, product number 63 1-0122) were placed on an oil immersion objective mounted on an inverted Olympus IX-71 microscope. Each coverslide was affixed at Frame-Seal incubation chambers and was incubated with 50 μL of HEPES buffer of pH 6.5. Just before the imaging, the HEPES buffer was replaced with 50 μL Ca^2+ containing buffer solution L-15. 16 (4×4) images of the coverslide were recorded under three different conditions (background, in the presence of Aβ42 and after addition of ionomycin (Cambridge Bioscience Ltd, Cambridge, UK), respectively). The distance between each field of view was set to 100 μm, and was automated (bean-shell script, Micromanager) to avoid any user bias. After each measurement the script allowed the stage (Prior H117, Rockland, Mass., USA) to move the field of view back to the start position such that identical fields of view could be acquired for the three different conditions. Images of the background were acquired in the presence of L15 buffer. For each field of view 50 images were taken with an exposure time of 50 ms. […] The recorded images were analysed using ImageJ to determine the fluorescence intensity of each spot under the three different conditions in the presence of an aggregation mixture incubated with and without Netoglitazone.

The subject of the next data set is PD worms (NL5901). The experiment in a line: Automated motility assay in PD worms. In kind it is in vivo, C. elegans. The note with it: same concentration range as in AD worms. The protocol: Standard conditions were used for the propagation of C. elegans (S. Brenner, The genetics of Caenorhabditis elegans. Genetics. 77, 71-94 (1974)). Briefly, the animals were synchronized by hypochlorite bleaching, hatched overnight in M9 buffer (3 g/l KH2PO4, 6 g/l Na2HPO4, 5 g/l NaCl, […]), and subsequently cultured at 20° C. on nematode growth medium (NGM) (CaCl2) 1 mM, MgSO4 1 mM, cholesterol 5 μg/mL, PBS Buffer (250 μM KH2PO4, 67.5 μM KCl, 3.425 mM of NaCl, pH 6), Agar 17 g/L, NaCl 3 g/1, casein 7.5 g/l) plates seeded with the E. coli strain OP50. […]
(§1) All C. elegans populations were cultured at 20° C. and developmentally synchronized from a 4 h egg-lay. At 64-72 h post-egg-lay (time zero), individuals were transferred to FUDR plates, and body movements were assessed over the times indicated. At different ages, the animals were washed off the plates with M9 buffer and spread over an OP-50 unseeded 9 cm plate, after which their movements were recorded at 20 fps using a recently developed microscopic procedure (M. Perni et al., Massively parallel C. elegans tracking provides multi-dimensional fingerprints for phenotypic discovery. J. Neurosci. Methods. 306, 57-67 (2018)) for 1 min. Up to 600 animals were counted in each experiment in duplicate unless stated otherwise. […]

For another data set, the system named is control animals (N2). The data set is described as follows: Maximum tolerable dose in control animals. Also on record: species or system C. elegans. Conditions: in vivo. The protocol: Briefly, Netoglitazone stocks (5 mM in 100% DMSO) were used at an appropriate concentration to seed 9-cm NGM plates. Plates were then placed in a laminar flow hood at room temperature (22° C.) for up to 4 hours to dry. C. elegans cultures were then transferred onto media seeded with compound as L4 stage or Day 3 for late treatments and incubated at 24° for the whole experiment. Experiments were carried out at different Netoglitazone concentrations ranging from 0.05 to 500 μM in 1% DMSO. As controls, plates seeded only with 1% DMSO were used.

The test system of data set [1] is Aβ3-42::GFPMuscular worms (CL2331). The data set is described as follows: Automated motility assay in Aβ3-42::GFPMuscular worms. In kind it is in vivo, C. elegans. The note with it: vs untreated worms. The protocol: CL2331; dvIs37 [myo-3p::GFP::A-Beta (3-42)+rol-6(su1006)] (Aβ3-42::GFPMuscular worms). Maintain at 16C. Roller. Diffuse and aggregated GFP expression in body wall muscle. Low brood size. Sicker at higher temperatures. (C. D. Link et al., The β amyloid peptide can act as a modular aggregation domain. Neurobiol. Dis. 32, 420-425 (2008)); and
Briefly, Netoglitazone stocks (5 mM in 100% DMSO) were used at an appropriate concentration to seed 9-cm NGM plates. Plates were then placed in a laminar flow hood at room temperature (22° C.) for up to 4 hours to dry. […]
as §1

T1 sequence (P05067 671-713): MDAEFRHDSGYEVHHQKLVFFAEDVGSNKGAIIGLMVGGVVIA

Regarding `O=C1NC(=O)C(Cc2ccc3cc(OCc4ccccc4F)ccc3c2)S1` (stereo not shown) [Netoglitazone], the “Protection against lipid vesicle disruption by Aβ42 oligomers (Ca2+ influx)” value at Aβ42 oligomers was “protected against the neurotoxic species-induced vesicle disruption; also recorded: decreased substantially the toxic effect”. In addition, the “Effect on mobility of PD worms” value with PD worms (NL5901) was “negligible compared to the observed effect in AD worms”. In the data set with control animals (N2), the “Maximum tolerable dose in control animals” value is under 500 µM. The “Motility of Aβ3-42::GFPMuscular worms” value in data set [1] was “significantly improves the motility of Aβ3-42::GFPMuscular worms”.
